Test: xn = mol fraction of the nth substance listed
Conditions: Liquid, Vibrating tube method

CCCCCCCC [octane] + CCCCCC
Conditions | mass density [kg/m3]
323.08 K, 13000 kPa, x2 = 0.1654 | 685.79
323.08 K, 14000 kPa, x2 = 0.1654 | 686.73
323.08 K, 15000 kPa, x2 = 0.1654 | 687.65
323.08 K, 16000 kPa, x2 = 0.1654 | 688.56
323.08 K, 17000 kPa, x2 = 0.1654 | 689.44
323.08 K, 18000 kPa, x2 = 0.1654 | 690.32
323.08 K, 19000 kPa, x2 = 0.1654 | 691.15
323.08 K, 20000 kPa, x2 = 0.1654 | 691.98
323.08 K, 21000 kPa, x2 = 0.1654 | 692.79
323.08 K, 22000 kPa, x2 = 0.1654 | 693.57
323.08 K, 23000 kPa, x2 = 0.1654 | 694.36
323.08 K, 24000 kPa, x2 = 0.1654 | 695.11
323.08 K, 25000 kPa, x2 = 0.1654 | 695.85
323.09 K, 1000 kPa, x2 = 0.9308 | 638.41
323.09 K, 2000 kPa, x2 = 0.9308 | 639.57
323.09 K, 3000 kPa, x2 = 0.9308 | 640.76
323.09 K, 4000 kPa, x2 = 0.9308 | 641.92
323.09 K, 5000 kPa, x2 = 0.9308 | 643.1
323.09 K, 6000 kPa, x2 = 0.9308 | 644.29
323.09 K, 7000 kPa, x2 = 0.9308 | 645.46
323.09 K, 8000 kPa, x2 = 0.9308 | 646.63
323.09 K, 9000 kPa, x2 = 0.9308 | 647.79
323.09 K, 10000 kPa, x2 = 0.9308 | 648.93
323.09 K, 11000 kPa, x2 = 0.9308 | 650.05
323.09 K, 12000 kPa, x2 = 0.9308 | 651.17
323.09 K, 13000 kPa, x2 = 0.9308 | 652.26
323.09 K, 14000 kPa, x2 = 0.9308 | 653.35
323.09 K, 15000 kPa, x2 = 0.9308 | 654.41
323.09 K, 16000 kPa, x2 = 0.9308 | 655.45
323.09 K, 17000 kPa, x2 = 0.9308 | 656.47
323.09 K, 18000 kPa, x2 = 0.9308 | 657.47
323.09 K, 19000 kPa, x2 = 0.9308 | 658.44
323.09 K, 20000 kPa, x2 = 0.9308 | 659.39
323.09 K, 21000 kPa, x2 = 0.9308 | 660.32
323.09 K, 22000 kPa, x2 = 0.9308 | 661.2
323.09 K, 23000 kPa, x2 = 0.9308 | 662.07
323.09 K, 24000 kPa, x2 = 0.9308 | 662.91
323.09 K, 25000 kPa, x2 = 0.9308 | 663.72
323.1 K, 1000 kPa, x2 = 0.7995 | 646.3
323.1 K, 2000 kPa, x2 = 0.7995 | 647.41
323.1 K, 3000 kPa, x2 = 0.7995 | 648.55
323.1 K, 4000 kPa, x2 = 0.7995 | 649.72
323.1 K, 5000 kPa, x2 = 0.7995 | 650.83
323.1 K, 6000 kPa, x2 = 0.7995 | 651.95
323.1 K, 7000 kPa, x2 = 0.7995 | 653.08
323.1 K, 8000 kPa, x2 = 0.7995 | 654.18
323.1 K, 9000 kPa, x2 = 0.7995 | 655.3
323.1 K, 10000 kPa, x2 = 0.7995 | 656.41
323.1 K, 11000 kPa, x2 = 0.7995 | 657.51
323.1 K, 12000 kPa, x2 = 0.7995 | 658.59
323.1 K, 13000 kPa, x2 = 0.7995 | 659.66
323.1 K, 14000 kPa, x2 = 0.7995 | 660.72
323.1 K, 15000 kPa, x2 = 0.7995 | 661.75
323.1 K, 16000 kPa, x2 = 0.7995 | 662.76
323.1 K, 17000 kPa, x2 = 0.7995 | 663.74
323.1 K, 18000 kPa, x2 = 0.7995 | 664.69
323.1 K, 19000 kPa, x2 = 0.7995 | 665.64
323.1 K, 20000 kPa, x2 = 0.7995 | 666.56
323.1 K, 21000 kPa, x2 = 0.7995 | 667.44
323.1 K, 22000 kPa, x2 = 0.7995 | 668.32
323.1 K, 23000 kPa, x2 = 0.7995 | 669.16
323.1 K, 24000 kPa, x2 = 0.7995 | 669.96
323.1 K, 25000 kPa, x2 = 0.7995 | 670.76
332.95 K, 1000 kPa, x2 = 0.5749 | 649.41
332.95 K, 2000 kPa, x2 = 0.5749 | 650.55
332.95 K, 3000 kPa, x2 = 0.5749 | 651.69
332.95 K, 4000 kPa, x2 = 0.5749 | 652.87
332.95 K, 5000 kPa, x2 = 0.5749 | 654.06
332.95 K, 6000 kPa, x2 = 0.5749 | 655.21
332.95 K, 7000 kPa, x2 = 0.5749 | 656.35
332.95 K, 8000 kPa, x2 = 0.5749 | 657.49
332.95 K, 9000 kPa, x2 = 0.5749 | 658.63
332.95 K, 10000 kPa, x2 = 0.5749 | 659.75
332.95 K, 11000 kPa, x2 = 0.5749 | 660.86
332.95 K, 12000 kPa, x2 = 0.5749 | 661.96
332.95 K, 13000 kPa, x2 = 0.5749 | 663.04
332.95 K, 14000 kPa, x2 = 0.5749 | 664.1
332.95 K, 15000 kPa, x2 = 0.5749 | 665.14
332.95 K, 16000 kPa, x2 = 0.5749 | 666.16
332.95 K, 17000 kPa, x2 = 0.5749 | 667.18
332.95 K, 18000 kPa, x2 = 0.5749 | 668.14
332.95 K, 19000 kPa, x2 = 0.5749 | 669.09
332.95 K, 20000 kPa, x2 = 0.5749 | 670.02
332.95 K, 21000 kPa, x2 = 0.5749 | 670.93
332.95 K, 22000 kPa, x2 = 0.5749 | 671.82
332.95 K, 23000 kPa, x2 = 0.5749 | 672.7
332.95 K, 24000 kPa, x2 = 0.5749 | 673.55
332.95 K, 25000 kPa, x2 = 0.5749 | 674.35
333.01 K, 1000 kPa, x2 = 0.9308 | 629.03
333.01 K, 2000 kPa, x2 = 0.9308 | 630.32
333.01 K, 3000 kPa, x2 = 0.9308 | 631.62
333.01 K, 4000 kPa, x2 = 0.9308 | 632.91
333.01 K, 5000 kPa, x2 = 0.9308 | 634.2
333.01 K, 6000 kPa, x2 = 0.9308 | 635.48

Reference: the NIST ThermoML archive (doi:10.1021/je200721d)
